Measurements taken from PubChem BioAssay AID192 (DTP/NCI, 2004).
Where “and” joins values, the source holds several entries; their conditions need not be identical. Equal values may be shown once. Inconclusive results and toxic doses are left out. The calls were made as follows: active = survival T/C of 150% or more; inactive = T/C below 125% in these data.

System: BDF1 mice, B16 melanoma ip, median survival T/C
Assay: NCI In Vivo Anticancer Drug Screen. Data for tumor model B16 Melanoma (intraperitoneal) in B6D2F1 (BDF1) mice
Settings: endpoint: median survival time, schedule: Q01DX009 (ip), higher = longer survival
Method in brief: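 Mice with transplantable tumors; drug vs vehicle groups; endpoint survival or tumor size; value = T/C.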

[1] = dose: 50.0 mg/kg/injection, vehicle: saline with Tween-80
[2] = dose: 200.0 mg/kg/injection, vehicle: saline with Tween-80
[3] = dose: 400.0 mg/kg/injection, vehicle: saline with Tween-80

Measured: T/C

C/C=C/C=C1/OC(C)=C(C(C)=O)C1=O
inactive: dose: 12.5 mg/kg/injection, vehicle: saline with Tween-80 102 % of control and 111 % of control | dose: 25.0 mg/kg/injection, vehicle: saline with Tween-80 102 % of control | [1] 102 % of control and 110 % of control | dose: 100.0 mg/kg/injection, vehicle: saline with Tween-80 96 % of control and 109 % of control | [2] 104 % of control | [3] 98 % of control

O=C1OCC(O)C(O)C(O)C(O)C1O (stereo unspecified)
inactive: dose: 100.0 mg/kg/injection, vehicle: saline 113 % of control | dose: 200.0 mg/kg/injection, vehicle: saline 106 % of control | dose: 400.0 mg/kg/injection, vehicle: saline 120 % of control

COC1=C(Br)[C@H](O)[C@](O)(CC#N)C=C1Br
inactive: dose: 17.5 mg/kg/injection, vehicle: Klucel (hydroxypropylcellulose) (HPC) 105 % of control | dose: 25.0 mg/kg/injection, vehicle: Klucel (hydroxypropylcellulose) (HPC) 87 % of control | dose: 35.0 mg/kg/injection, vehicle: Klucel (hydroxypropylcellulose) (HPC) 99 % of control | dose: 70.0 mg/kg/injection, vehicle: Klucel (hydroxypropylcellulose) (HPC) 107 % of control

CC(C)C(Br)C(=O)NCC(=O)NCC(=O)O (stereo unspecified)
inactive: [2] 91 % of control | [3] 87 % of control

Nc1ccccc1SC1CC(=O)N(c2ccc(Br)cc2Cl)C1=O (stereo unspecified)
inactive: dose: 50.0 mg/kg/injection, vehicle: Klucel (hydroxypropylcellulose) (HPC) 94 % of control

CC(=O)Nc1ccn(C2OC(COC(C)=O)C(OC(C)=O)C2OC(C)=O)c(=O)n1 (stereo unspecified)
inactive: dose: 150.0 mg/kg/injection, vehicle: saline with Tween-80 103 % of control | dose: 300.0 mg/kg/injection, vehicle: saline with Tween-80 114 % of control | dose: 600.0 mg/kg/injection, vehicle: saline with Tween-80 119 % of control | dose: 1200.0 mg/kg/injection, vehicle: saline with Tween-80 123 % of control

CC(=O)N(C(C)=O)C1=C(c2ccccc2)C(=O)c2ccccc21
inactive: dose: 100.0 mg/kg/injection, vehicle: Klucel (hydroxypropylcellulose) (HPC) 100 % of control | dose: 200.0 mg/kg/injection, vehicle: Klucel (hydroxypropylcellulose) (HPC) 97 % of control | dose: 400.0 mg/kg/injection, vehicle: Klucel (hydroxypropylcellulose) (HPC) 97 % of control

CCOC(=O)C(C)C(=O)O (stereo unspecified)
inactive: dose: 12.5 mg/kg/injection, vehicle: saline 116 % of control | dose: 25.0 mg/kg/injection, vehicle: saline 101 % of control | [1] 99 % of control | dose: 50.0 mg/kg/injection, vehicle: saline 98 % of control

Clc1nc2ccccc2nc1CI
inactive: dose: 0.04 mg/kg/injection, vehicle: saline with Tween-80 97 % of control | dose: 0.08 mg/kg/injection, vehicle: saline with Tween-80 97 % of control | dose: 0.15 mg/kg/injection, vehicle: saline with Tween-80 97 % of control | dose: 0.3 mg/kg/injection, vehicle: saline with Tween-80 92 % of control | dose: 0.31 mg/kg/injection, vehicle: saline with Tween-80 94 % of control | dose: 0.62 mg/kg/injection, vehicle: saline with Tween-80 91 % of control | dose: 1.25 mg/kg/injection, vehicle: saline with Tween-80 100 % of control | dose: 2.5 mg/kg/injection, vehicle: saline with Tween-80 97 % of control | dose: 5.0 mg/kg/injection, vehicle: saline with Tween-80 88 % of control
